These results are taken from patent US8134010B2, “Thiazole-based nitric oxide donors having aryl substituent(s) and uses thereof” (priority 2004, dated 2012).

“Also recorded” adds a separate entry of the source.

Assay [1] concerns c-GMP in slices of thoracic aorta of rats. Kind of assay: Cyclic-GMP measurement in aortic rat tissue (radioimmunoassay). The assay is classed as cell-based. The settings on record: for accumulation of cyclic-GMP as compared with GTN: isolated rat aorta, radioimmunoassay; for cGMP Post-infusion: post-infusion (repeated treatment). On the procedure:
GTN (10^−6 M) was added to the chamber and, 1 minute after exposure to the drug, rings (usually 3-5) were taken, wrapped with aluminum foil and immediately frozen in liquid nitrogen for storage. Control sample group was treated with the vehicle solution only. At the time of analysis, rings were thawed, blotted over a dry gauzed and weighted. A known weight of tissue was homogenized in 2 ml ice-cold modified Hank's balanced salt solution containing (in gram/liter) NaCl 8; KCl 0.4; glucose 1; KH2PO4 0.06; Na2HPO4 0.047; Phenol red 0.017 and further containing 25 mM EDTA (disodium salt). The homogenate was centrifuged at 4000 g (force units) for 10 minutes at 2-4° C. and the supernatant was thereafter transferred into fresh pre-cooled test tube containing 1 ml of acetonitrile. The tubes were vortex mixed for a few seconds and subsequently centrifuged at 4000 g for 5 minutes at 2-4° C., to remove the precipitated protein. Each supernatant was transferred into a clean test tube and evaporated to dryness under a stream of nitrogen at 55° C. The dry residue was reconstituted with 10 volumes of Tris-EDTA buffer pH 7.5 (0.05 M Tris containing 4 mM EDTA). Aliquots of 100 μl of the reconstituted solution in duplicate were used for c-GMP measurements using Amersham RIA kit, as is described in Haj-Yehia & Benet [Pharmacology, 1995, 273, 1, pp. 94-100]. Standard curves were plotted with six concentrations (0, 0.5, 1, 2, 4 and 8 pmoles of c-GMP per tube).
The NO-tolerance effect of GTN and NO-donor compounds according to the present invention was measured by following the production of c-GMP in slices of thoracic aorta of rats. Thus, the production of c-GMP was measured as described in the methods section above for the reference NO-donor compound GTN, and for the NO-donors of the present invention Pet-2, Pet-3, Pet-7, Pet-8, Pet-10, Pet-12, Pet-24, Pet-59, Pet-106, Pet-107, Pet-120, Pet-147, Pet-149, Pet-152, Pet-154 and Pet-155.

The test system of assay [2] is hypertensive Sprague-Dawley male rats. Kind of assay: Hypotensive effects: mean arterial pressure during intravenous bolus doses. The assay is classed as in vivo, rat. The settings on record: for activity as hypotensive agents (MAP): rats given phenylephrine. On the procedure: Mean arterial pressure (MAP) was monitored and determined during bolus infusion of Pet-2, Pet-3, Pet-7, Pet-8, Pet-12 and Pet-13. Briefly, polyethylene catheters (PE50) were inserted into the carotid artery and into the jugular vein of anesthetized hypertensive Sprague-Dawley male rats (200-300 grams). A blood pressure recorder was placed within the carotid artery. Phenylephrine (0.1 mg) was then injected and the mean arterial blood pressure (MABP) was monitored continuously until a stable baseline was reached. The hypotensive effects of intravenous (iv) bolus doses (0.1 mg of each tested compound) administered intravenously at the jugular vein in minimal volume of vehicle (0.2 ml per dose) were evaluated. Five minutes were allowed between each dose, during which the maximal decrease in MAP was recorded and a dose-response graph comparing the hypotensive effect of the compounds was constructed.

A further assay has as its system isolated rat aorta. Kind of assay: In vitro induction of tolerance to NO releasing compounds (vasorelaxation of pre-exposed aortic rings). The assay is classed as cell-based. To be noted: rings pre-treated with epinephrine and then with 0.44 mM of the same compound. Here is the method: Aortic rings were prepared as described hereinabove, and were exposed to 0.44 mM GTN (vehicle was water:ethanol:propyleneglycol at proportional ratio of 1:1:1) for 1 hour before CCRC construction, to thereby induce tolerance to nitroglycerine. At the end of the tolerance induction period, rings were thrice washed with the path buffer (Krebs-bicrbonate) every 15 minutes for the following hour and then CCRC for vasorelaxation on GTN-induced tolerance rings were constructed for GTN (pretreated versus untreated rings, FIG. 15), in order to verify the ability to induce and measure GTN tolerance induction in vitro
Attempted induction of tolerance to the NO-donating compounds of the present invention was performed under the same conditions as for GTN. Thus, in an exemplary experiment, rings were exposed to 0.44 mM solution of Pet-3 in the attempt to induce tolerance for Pet-3. CCRC were then measured for the vasorelaxing effect of Pet-3 on a group of rings which were pre-exposed to Pet-3 as to induce tolerance to Pet-3, and for an untreated control group. The above protocol was repeated with Pet-2, Pet-7, Pet-8, Pet-12, Pet-24, Pet-43, Pet-149 and Pet-152.

Assay [3] has as its system cyclic-GMP in isolated aorta of rats. Kind of assay: Induction of in vivo nitrate tolerance (cGMP in isolated aorta of rats pre-treated in vivo). The arrangement: species or system rat. The settings on record: rats pre-treated in vivo with the same compound. On the procedure:
For c-GMP levels and tolerance development, the rat's thoracic aorta was isolated after exposure to the tested compound in vivo, and measured as described above in the in vitro assays.
Male Sprague Dawley rats (220 to 250 grams) were housed under constant temperature and humidity conditions. Light was maintained at a 12/12 light dark cycle. Except for 12 hours before the experiment, when food fasting was initiated, all rats had free access to standard rat pellet diet and tap water. The animals were anesthetized by intraperitoneal injection of ketamine and xylazine combination (50 and 10 milligram per kilogram, respectively). […] The catheters were filled with normal saline solution containing 1000 IU/ml of heparin and plugged with a metal pin. Catheters were externalized to the back of the neck region and secured by a polyester felt disk.
After implantation, the rats were individually housed until they regained their preoperative weight and appeared healthy (3 to 4 days post-operation). At this time point (day 0), an osmotic mini-pump (Alza Corp., Palo Alto, Calif.) delivering constant volume (10 μl/hour) of vehicle or drug was connected to one of the intravenous catheters.
For inducing tolerance to the tested NO-donor according to the present invention, the animals received 200 μg/hour of the tested compound for 16 hours (short-term-induced tolerance). A similar number of animals were processed by the same surgical procedure and received the vehicle alone (10 μl/hour of a solution consisting of 30% ethanol and 30% propylene glycol in sterile distilled water for injection).
At the end of the infusion periods used for the development of tolerance (16 hour), the rats were anesthetized as described above, the two catheters were externalized and the delivering catheters were disconnected from the mini-pump. The abdomen was opened by midline incision and the thoracic aorta were isolated, washed and cleaned from the surrounding tissues. […]

With `Cc1nc(NC(=O)[C@@H](C)c2ccc(CC(C)C)cc2)sc1CCO[N+](=O)[O-]` (stereo in doubt) [Pet-152, 2-(4-Isobutyl-phenyl)-N-[4-methyl-5-(2-nitrooxy-ethyl)-thiazol-2-yl]-propionamide], the “accumulation of cyclic-GMP as compared with GTN” value (from here on “accumulation … compared with GTN”) in assay [1] is listed as “increased levels of cGMP”.

In the case of `O=[N+]([O-])OCC(CO[N+](=O)[O-])O[N+](=O)[O-]` [GTN, glyceryl trinitrate, reference compound], the “hypotensive effect on MAP following successive administrations” value in assay [2] (successive doses) is reported as “attenuation in its effect on MAP”. In addition, the “tolerance induction in vitro (vasorelaxation, pre-treated versus control rings)” value with isolated rat aorta is “tolerance inducement caused by treatment with GTN; also recorded: causing the emergence of tolerance; also recorded: tolerance induced by treatment with GTN”. Further, in assay [1] (rat thoracic aorta), the “c-GMP level following a repeated treatment” value is given as “significantly reduced”. In addition, the “tolerance induction by cyclic-GMP accumulation in aorta of rats pre-treated in vivo” value in assay [3] was “tolerance inducing effect; also recorded: decreased”.

As for `Cc1nc(C)c(CCO[N+](=O)[O-])s1` [Pet-3, 2,4-Dimethyl-5-(2-nitrooxy-ethyl)-thiazole], the “activity as hypotensive agents (MAP)” value in assay [2] is reported as “high activity”. For the same compound, in the assay on isolated rat aorta, the “tolerance induction in vitro (vasorelaxation, pre-treated versus control rings)” value is given as “absence of tolerance induction”. Also, the “accumulation … compared with GTN” value in assay [1] is reported as “increased levels of cGMP”.

For `Cc1nc(N(C)C)sc1CCO[N+](=O)[O-]` [Pet-7, Dimethyl-[4-methyl-5-(2-nitrooxy-ethyl)-thiazol-2-yl]-amine], the “activity as hypotensive agents (MAP)” value in assay [2] is given as “high activity”. For the same compound, the “tolerance induction in vitro (vasorelaxation, pre-treated versus control rings)” value in the assay with isolated rat aorta is on record as “absence of tolerance induction”. In addition, in assay [1], the “accumulation … compared with GTN” value is recorded as “increased levels of cGMP”.

As for `Cc1nc(-c2ccccc2)sc1CCO[N+](=O)[O-]` [Pet-8, 4-Methyl-5-(2-nitrooxy-ethyl)-2-phenyl-thiazole], in assay [2], the “activity as hypotensive agents (MAP)” value is recorded as “high activity”. Besides, the “accumulation … compared with GTN” value in assay [1] is given as “increased levels of cGMP”.

With `Cc1nc(N)sc1CCO[N+](=O)[O-]` [Pet-10, 4-methyl-5-(2-nitrooxy-ethyl)-thiazole-2-ylamine], in assay [1], the “accumulation … compared with GTN” value is “increased levels of cGMP”.

For `Cc1nc(CCCCc2nc(C)c(CCO[N+](=O)[O-])s2)sc1CCO[N+](=O)[O-]` [Pet-13], the “activity as hypotensive agents (MAP)” value in assay [2] is “high activity”.

Take `CNc1cncc(-c2nc(C)c(CCO[N+](=O)[O-])s2)n1` [Pet-24, Methyl-{6-[4-methyl-5-(2-nitrooxy-ethyl)-thiazol-2-yl]-pyrazin-2-yl}-amine]: the “tolerance induction in vitro (vasorelaxation, pre-treated versus control rings)” value with isolated rat aorta is given as “absence of tolerance induction”. The “accumulation … compared with GTN” value in assay [1] is “increased levels of cGMP”.

As for `Cc1nc(Nc2nc(C)c(CCO[N+](=O)[O-])s2)sc1CCO[N+](=O)[O-]` [Pet-43, Bis-[4-methyl-5-(2-nitrooxy-ethyl)-thiazol-2-yl]-amine], the “tolerance induction in vitro (vasorelaxation, pre-treated versus control rings)” value in the assay on isolated rat aorta was “absence of tolerance induction”.

On to `Cc1nc(-c2ccc(C(F)(F)F)cc2)sc1CCO[N+](=O)[O-]` [Pet-59, 4-Methyl-5-(2-nitrooxy-ethyl)-2-(4-trifluoromethyl-phenyl)-thiazole], for which, in assay [1], the “accumulation … compared with GTN” value is given as “increased levels of cGMP”.

In the case of `Cc1nc(-c2ccc(N)cc2)sc1CCO[N+](=O)[O-]` [Pet-106, 4-[4-Methyl-5-(2-nitrooxy-ethyl)-thiazol-2-yl]-phenylamine], the “tolerance induction in vitro (vasorelaxation, pre-treated versus control rings)” value in the assay on isolated rat aorta is recorded as “absence of tolerance induction”. Moreover, in assay [1], the “accumulation … compared with GTN” value is reported as “increased levels of cGMP”. Also, the “cGMP Post-infusion” value in assay [1] (rat thoracic aorta) amounted to 120 ± 12 pmol/g tissue.

For the compound `CC(=O)Nc1ccc(-c2nc(C)c(CCO[N+](=O)[O-])s2)cc1` [Pet-107, N-{4-[4-Methyl-5-(2-nitrooxy-ethyl)-thiazol-2-yl]-phenyl}-acetamide], the “tolerance induction in vitro (vasorelaxation, pre-treated versus control rings)” value with isolated rat aorta was “absence of tolerance induction”. The “accumulation … compared with GTN” value in assay [1] is “increased levels of cGMP”. For the same compound, in assay [1] (rat thoracic aorta), the “cGMP Post-infusion” value worked out at 125 ± 10 pmol/g tissue.

For the compound `CCNc1nc(C)c(CCO[N+](=O)[O-])s1` [Pet-147, Ethyl-[4-methyl-5-(2-nitrooxy-ethyl)-thiazol-2-yl]-amine], in assay [1], the “accumulation … compared with GTN” value was “increased levels of cGMP”.

`Cc1nc(Nc2cccc3ccccc23)sc1CCO[N+](=O)[O-]` [Pet-149, [4-Methyl-5-(2-nitrooxy-ethyl)-thiazol-2-yl]-naphthalen-1-yl-amine]: in the assay on isolated rat aorta, the “tolerance induction in vitro (vasorelaxation, pre-treated versus control rings)” value was “absence of tolerance induction”. Besides, the “accumulation … compared with GTN” value in assay [1] is recorded as “increased levels of cGMP”.

Turning to `Cc1nc(NC(=O)c2cccnc2)sc1CCO[N+](=O)[O-]` [Pet-154, N-[4-methyl-5-(2-nitrooxy-ethyl)-thiazol-2-yl]-nicotinamide], the “accumulation … compared with GTN” value in assay [1] is “increased levels of cGMP”.

As for `C=CCNc1nc(C)c(CCO[N+](=O)[O-])s1` [Pet-155, allyl-[4-methyl-5-(2-nitrooxy-ethyl)-thiazol-2-yl]-amine], in assay [1], the “accumulation … compared with GTN” value was “increased levels of cGMP”.
